Laboratory results reported in patent US20160017399A1, “ELECTROCHEMICAL-BASED ANALYTICAL TEST STRIP WITH ENZYMATIC REAGENT LAYER CONTAINING A NAPHTHOQUINONE-BASED MEDIATOR AND FAD-GDH” (LifeScan Scotland Limited, priority 2014, published 2016).
Where two headings read alike, the source gives them in different places.

Legend:
[1] = solubility at room temperature; format: physicochemical
From the text: Compound A is an orange amorphous solid, soluble in base and neutral phosphate buffer at room temperature. Compound A has the following beneficial electrochemical characteristics: • E0=0.086V vs Ag/AgCl (0.1M KCl) • kcat=900 s^−1 where E0 is the formal redox potential vs Ag/AgCl (compare to 0.25V for ferricyanide) and kcat is the rate constant for homogeneous electron transfer between the mediator (i.e., Compound A) and enzyme cofactor FAD. It is noted that E0 for ferricyanide is 0.25V and kcat for ferricyanide is 230 s^−1. Compound A has both an E0 that is beneficially lower than that of ferricyanide (and thus less is less susceptible to interferents) and a kcat that is beneficially higher than that of ferricyanide.
Compound B is an orange amorphous solid, soluble in base and neutral phosphate buffer at room temperature. […] has the following beneficial electrochemical characteristics: • E0=0.016V vs Ag/AgCl (0.1M KCl) • kcat=100 s^−1 where E0 is the formal redox potential vs Ag/AgCl (compare to 0.25V for ferricyanide) and kcat is the rate constant for homogeneous electron transfer between the mediator (i.e., Compound A) and enzyme cofactor FAD. It is noted that E0 for ferricyanide is 0.25V and kcat for ferricyanide is 230 s^−1. […]

[2] = storage stability (glucose sensitivity after storage); format: physicochemical; settings: storage for 26 days at 40 degrees Celsius

Row | SMILES | solubility [1] | reduction in glucose sensitivity after storage [2] | solubility ([1]; in base and neutral phosphate buffer at room temperature)
1 | O=C1C=C(SCCCS(=O)(=O)O)c2ccccc2C1=O [Compound A, 1,2-naphthalenedione-4-(3-mercapto-1-propanesulfonic acid)] | soluble | no reduction in glucose sensitivity | 
2 | O=C(O)CCSC1=CC(=O)C(=O)c2ccccc21 [Compound B, 1,2-naphthalenedione-4-(3-mercaptopropionic acid)] |  | no reduction in glucose sensitivity | soluble
